# Test results reported in ChEMBL document CHEMBL5518211, “Design, Synthesis, and Antitumor Activity Evaluation of Novel VISTA Small Molecule Inhibitors” (J Med Chem, 2024).
# What was measured:
# [1] = biological target: T1, V-type immunoglobulin domain-containing suppressor of T-cell activation (Homo sapiens, UniProt Q9H7M9)
# T1 sequence (Q9H7M9 whole entry): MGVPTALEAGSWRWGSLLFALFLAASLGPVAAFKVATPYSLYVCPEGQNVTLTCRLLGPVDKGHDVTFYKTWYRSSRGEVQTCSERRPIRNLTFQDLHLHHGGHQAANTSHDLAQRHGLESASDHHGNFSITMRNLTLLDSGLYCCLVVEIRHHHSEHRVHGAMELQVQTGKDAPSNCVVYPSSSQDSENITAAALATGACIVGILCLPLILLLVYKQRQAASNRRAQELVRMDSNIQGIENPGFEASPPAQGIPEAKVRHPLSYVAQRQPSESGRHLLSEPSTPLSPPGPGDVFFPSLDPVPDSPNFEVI
# Description: Binding affinity to human VISTA assessed as dissociation constant by MST analysis
# [2] = biological target: T2, V-type immunoglobulin domain-containing suppressor of T-cell activation (Mus musculus, UniProt Q9D659); experiment: Binding affinity to mouse VISTA ECD assessed as dissociation constant by MST analysis
# T2 sequence (Q9D659 whole entry): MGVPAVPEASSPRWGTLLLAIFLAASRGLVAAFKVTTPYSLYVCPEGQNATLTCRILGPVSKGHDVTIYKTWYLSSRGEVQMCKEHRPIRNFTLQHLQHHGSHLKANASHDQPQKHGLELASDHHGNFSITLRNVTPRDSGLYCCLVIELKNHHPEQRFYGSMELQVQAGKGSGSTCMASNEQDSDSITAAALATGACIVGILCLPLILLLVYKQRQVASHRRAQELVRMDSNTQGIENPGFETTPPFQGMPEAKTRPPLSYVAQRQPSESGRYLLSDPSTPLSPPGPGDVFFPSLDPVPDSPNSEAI
SMILES,Kd [1],Kd [2]
COC1C=C(CNCCNC(C)=O)N=C(Nc2cccc(O)c2)N1 (configuration not stated),4730 nM,–
Cc1ccc2nc(Nc3nc(O)cc(CSc4nnc(C)s4)n3)nc(C)c2c1,–,647 nM
